Experimental data published in ChEMBL document CHEMBL3580659, “One-pot multicomponent synthesis of indole incorporated thiazolylcoumarins and their antibacterial, anticancer and DNA cleavage studies” (2015).
Calls of active or inactive are those of the source. No cut-off for these calls is given here.

Key:
[1] = test system: Escherichia coli; test: Induction of DNA cleavage of Escherichia coli pUC18 plasmid DNA at 50 ug/ml after 2 hrs by agarose gel elctrophoresis method
[2] = test system: Bacillus subtilis; test: Antibacterial activity against Bacillus subtilis assessed as bacterial growth inhibition at 50 ug/ml after 24 hrs by cup-plate agar diffusion method; format: functional; settings: read-out: IZ
[3] = test system: Escherichia coli; test: Antibacterial activity against Escherichia coli assessed as bacterial growth inhibition at 50 ug/ml after 24 hrs by cup-plate agar diffusion method; format: functional; settings: read-out: IZ
[4] = test system: Escherichia coli; test: Induction of DNA cleavage of Escherichia coli pUC18 plasmid DNA at 100 ug/ml after 2 hrs by agarose gel elctrophoresis method

Activity [1] | Activity [4] | SMILES | zone of inhibition at 50 µg/mL [2] [mm] | zone of inhibition at 50 µg/mL [3] [mm]
Active | – | COc1ccc2[nH]cc(/C=N/Nc3nc(-c4cc5c(ccc6ccccc65)oc4=O)cs3)c2c1 | 15 | 12
Active | – | Cc1[nH]c2ccccc2c1/C=N/Nc1nc(-c2cc3ccccc3oc2=O)cs1 | 13 | 10
– | Active | CCn1cc(/C=N/Nc2nc(-c3cc4c(ccc5ccccc54)oc3=O)cs2)c2ccccc21 | 15 | 12
Active | – | COc1ccc2[nH]cc(/C=N/Nc3nc(-c4cc5ccccc5oc4=O)cs3)c2c1 | 13 | 10
Active | – | Cc1[nH]c2ccccc2c1/C=N/Nc1nc(-c2cc3cc(Cl)ccc3oc2=O)cs1 | 10 | 6
Active | – | CCn1cc(/C=N/Nc2nc(-c3cc4cc(Br)ccc4oc3=O)cs2)c2ccccc21 | 15 | 15
Active | – | COc1ccc2[nH]cc(/C=N/Nc3nc(-c4cc5cc(Br)cc(Br)c5oc4=O)cs3)c2c1 | 10 | 10
Active | – | Cc1[nH]c2ccccc2c1/C=N/Nc1nc(-c2cc3cc(Br)cc(Br)c3oc2=O)cs1 | 15 | 12
Active | – | CCn1cc(/C=N/Nc2nc(-c3cc4cc(Br)cc(Br)c4oc3=O)cs2)c2ccccc21 | 10 | 10
Active | – | O=c1oc2c(Br)cc(Br)cc2cc1-c1csc(N/N=C/c2c[nH]c3ccccc23)n1 | 10 | 7
Active | – | O=c1oc2ccc(Cl)cc2cc1-c1csc(N/N=C/c2c[nH]c3ccccc23)n1 | 13 | 15
– | Active | CCn1cc(/C=N/Nc2nc(-c3cc4ccccc4oc3=O)cs2)c2ccccc21 | 10 | 10
Active | – | O=c1oc2ccc3ccccc3c2cc1-c1csc(N/N=C/c2c[nH]c3ccccc23)n1 | 15 | 14
Active | – | O=c1oc2ccccc2cc1-c1csc(N/N=C/c2c[nH]c3ccc(Br)cc23)n1 | 15 | 10
Active | – | Cc1[nH]c2ccccc2c1/C=N/Nc1nc(-c2cc3cc(Br)ccc3oc2=O)cs1 | 10 | 12
Active | – | O=c1oc2ccc(Br)cc2cc1-c1csc(N/N=C/c2c[nH]c3ccccc23)n1 | 15 | 13
